# Reference: patent US7087620B2, “Liquid pharmaceutical formulations containing 3,7-diazabicyclo[3,3,1]nonane compounds and methods of treatment relating to anti-arrhythmic events” (Solvay Pharmaceuticals GmbH, priority 2002, dated 2006)
# Where two headings read alike, the source gives them in different places.
# How the values were obtained:
# [1] = Two step infusion study in healthy male subjects: pharmacokinetics (Tedisamil plasma concentration); assay type: in vivo; conditions: human; for Tmax: male, iv, 0.4 mg/kg, after start of infusion, 0.4 mg/kg iv two step infusion
# Method: A double-blind, placebo-controlled, randomized, single iv dose, two periods cross-over study to assess the safety, tolerability, pharmacodynamics and pharmacokinetics during and following a two step infusion of Tedisamil in healthy male subjects was performed with the following drug and dosages: Tedisamil dihydrochloride/0.4 mg/kg body weight infused over 30 minutes.
# Subjects were included in the study only if they were healthy males, their age was in the range of 18-40 years (both inclusive), their body mass index (BMI) was between 18 kg/m^2 and 28 kg/m^2. Test product, dose and mode of administration: Tedisamil dihydrochloride; Strength: 2 mg/ml; Dose: 0.4 mg/kg body weight infused over 30 minutes, with half of the dose infused over 10 minutes and half of the dose infused over the remaining 20 minutes. Route: intravenous.
# Blood samples for determination of Tedisamil plasma concentration were taken at several time points during and following intravenous drug administration in both study periods. The following pharmacokinetic parameters were determined: AUC(0-inf), AUC(0-t), Cmax, Tmax, t1/2, λz, Vss, CL, MRT and the number of data points considered for the determination of terminal half life.
# Geometric means and corresponding 90% confidence intervals were calculated for the plasma concentration of tedisamil at each time-point, for AUC, AUC(0-t), CL, and Cmax.
# Arithmetic means and corresponding 90% confidence intervals were calculated for the other variables (Vss, λz, t1/2, MRT). Tmax was described using minimum, median, maximum, and frequency counts. Individual and mean plasma-concentration versus time curves were plotted using both linear and semi-logarithmic scale.
# [2] = system: patients with atrial fibrillation; test: Placebo-controlled ascending dose study of intravenous tedisamil: conversion to normal sinus rhythm, patients with atrial fibrillation; assay type: in vivo, human; conditions: for Conversion to NSR at any time within 2.5 hrs after the start of infusion (patients converted out of total) / Conversion to NSR at any time within 2.5 hrs and remaining in NSR until 2.5 hrs after the start of infusion (patients out of total) / Conversion to NSR at any time within 2.5 hrs and remaining in NSR until 2.5 hrs after the start of infusion (percentage of patients) / Conversion to NSR at any time within 2.5 hrs and remaining in NSR until 24 hrs after the start of infusion (patients out of total) / Conversion to NSR at any time within 2.5 hrs and remaining in NSR until 24 hrs after the start of infusion (percentage of patients) / Conversion to NSR at any time within 24 hrs after the start of infusion (patients out of total) / Conversion to NSR at any time within 24 hrs after the start of infusion (percentage of patients) / Conversion to NSR at any time within 24 hrs and remaining in NSR until 24 hrs after the start of infusion (patients out of total) / Conversion to NSR at any time within 24 hrs and remaining in NSR until 24 hrs after the start of infusion (percentage of patients): patients with atrial fibrillation; for Percentage of patients converted to normal sinus rhythm at any time within 2.5 hours after the initiation of the infusion: patients with atrial fibrillation taking beta-blockers
# Method: A Multi-Center, Double-Blind, Randomized, Placebo-Controlled, Sequential Ascending Dose Groups Study to evaluate the Efficacy and Safety of Intravenous Tedisamil in the Rapid Conversion to Normal Sinus Rhythm in Patients with Atrial Fibrillation or Flutter was performed.
# • Tedisamil (0.4 mg/kg body weight) • Tedisamil (0.6 mg/kg body weight) • Placebo • Dosages were given as a 30 minute intravenous infusion regimen. 1. Study Design
# This multicenter trial was a double-blind, randomized, placebo-controlled, ascending dose groups study comparing the efficacy and safety of intravenous tedisamil treatment versus placebo in symptomatic patients with atrial fibrillation or flutter (>3 hours and <48 hours). The primary efficacy endpoint of this study was the termination of atrial fibrillation or flutter (for at least 60 seconds) within 2.5 hours after start of the infusion.
# Following screening and baseline assessments, eligible patients were randomized to tedisamil or placebo with a sequential dose escalation approach. In the first stage, patients received 0.4 mg tedisamil/kg body weight or placebo over a 30 minutes infusion period, with half the dose infused during the first 10 minutes and half the dose infused over the remaining 20 minutes. After interim safety evaluation, in the second stage, patients received 0.6 mg tedisamil/kg body weight or placebo, with the same infusion regimen.
# Patients were discharged from the telemetry unit 24 hours post infusion and safety follow up was to be obtained after 28 days. Blinded reviews of 12-lead ECGs (including 60 seconds rhythm strip) and 24 hour Holters to adjudicate the clinical endpoint (conversion to normal sinus rhythm) were performed centrally according to standard guidelines.
# Tedisamil dihydrochloride, 0.4 mg/kg body weight, 0.6.mg/kg body weight was administered intravenously. The total infusion time was 30 minutes, with half the dose infused within 10 minutes, and half the dose infused within the remaining 20 minutes.
# The percentage of patients converted to normal sinus rhythm (for at least 60 seconds) at any time within 2.5 hours after the initiation of the infusion of study drug.
# 6.1.2 Secondary Efficacy • The percentage of patients converted to normal sinus rhythm (for at least 60 seconds) at any time within 2.5 hrs and remaining in sinus rhythm until 2.5 hours after initiation of the intravenous infusion of tedisamil versus placebo. • The percentage of patients converted to normal sinus rhythm (for at least 60 seconds) at any time within 24 hours after initiation of the intravenous infusion of tedisamil versus placebo. • The percentage of patients converted to normal sinus rhythm (for at least 60 seconds) at any time within 24 hrs and remaining in sinus rhythm until 24 hours after initiation of the intravenous infusion of tedisamil versus placebo. • The percentage of patients converted to normal sinus rhythm (for at least 60 seconds) at any time within 2.5 hrs and remaining in sinus rhythm until 24 hours after initiation of the intravenous infusion of tedisamil versus placebo. • The time to conversion after the start of the infusion of tedisamil versus placebo. • The dose- and concentration-response relationships of tedisamil versus placebo.
# The intent-to-treat patient sample was analyzed for efficacy. All tests were two-sided and a p-value <0.05 was considered significant. Differences in percentages of conversion were compared among the treatment groups using the Pearson chi-square statistic. Safety analysis was conducted on the safety patient sample. Numbers and percentages of patients with adverse events were calculated for each treatment group, using MedDRA preferred terms and body systems. Descriptive statistics were summarized by treatment group for changes from baseline in QT, heart rate and blood pressure. […]
# [3] = 0.4 mg/kg iv two-step 30 minute infusion
# [4] = 0.6 mg/kg iv two-step 30 minute infusion
# [5] = Atrial Fibrillation, Female, 0.4 mg/kg, ITT patient sample, patients with DC cardioversion excluded
# [6] = Atrial Fibrillation, Female, 0.6 mg/kg, ITT patient sample, patients with DC cardioversion excluded
# [7] = Atrial Fibrillation, Male, 0.4 mg/kg, ITT patient sample, patients with DC cardioversion excluded
# [8] = Atrial Fibrillation, Male, 0.6 mg/kg, ITT patient sample, patients with DC cardioversion excluded
# [9] = atrial fibrillation, Female, <65 yrs, 0.4 mg/kg, ITT, DC cardioversion excluded
# [10] = atrial fibrillation, Female, <65 yrs, 0.6 mg/kg, ITT, DC cardioversion excluded
# [11] = atrial fibrillation, Female, >=65 yrs, 0.4 mg/kg, ITT, DC cardioversion excluded
# [12] = atrial fibrillation, Female, >=65 yrs, 0.6 mg/kg, ITT, DC cardioversion excluded
# [13] = atrial fibrillation, Male, <65 yrs, 0.4 mg/kg, ITT, DC cardioversion excluded
# [14] = atrial fibrillation, Male, <65 yrs, 0.6 mg/kg, ITT, DC cardioversion excluded
# [15] = atrial fibrillation, Male, >=65 yrs, 0.4 mg/kg, ITT, DC cardioversion excluded
# [16] = atrial fibrillation, Male, >=65 yrs, 0.6 mg/kg, ITT, DC cardioversion excluded
compound,measurement,setting,value
"C1CCC2(C1)C1CN(CC3CC3)CC2CN(CC2CC2)C1 [Tedisamil, N,N′-dicyclopropylmethyl-9,9-tetramethylene-3,7-diazabicyclo[3,3,1]nonane]",AUC(0-inf),"[1]; 0.4 mg/kg tedisamil dihydrochloride iv, two step infusion over 30 minutes, read-out: AUC(0-inf), Geom. Mean",1720 ng·h/mL
same,AUC(0-t),"[1]; 0.4 mg/kg tedisamil dihydrochloride iv, two step infusion over 30 minutes, read-out: AUC(0-t), Geom. Mean",1670 ng·h/mL
same,clearance,"[1]; 0.4 mg/kg tedisamil dihydrochloride iv, two step infusion over 30 minutes, read-out: CL, Geom. Mean",315 mL/min
same,Cmax,"[1]; 0.4 mg/kg tedisamil dihydrochloride iv, two step infusion over 30 minutes, read-out: Cmax, Geom. Mean",905 ng/mL
same,half-life,"[1]; 0.4 mg/kg tedisamil dihydrochloride iv, two step infusion over 30 minutes, read-out: t½, Arithmetic mean (converted)",330 min
same,Tmax,"[1]; read-out: Time of peak plasma concentration (Tmax), median (converted)",12.5 min
same,Tmax,"[1]; read-out: Time of peak plasma concentration (Tmax), range",5 to 75 min
same,Conversion to NSR at any time within 2.5 hrs after the start of infusion (patients converted out of total),[2]; [3],24 out of 52
same,Conversion to NSR at any time within 2.5 hrs and remaining in NSR until 2.5 hrs after the start of infusion (patients out of total),[2]; [3],23 out of 52
same,Conversion to NSR at any time within 2.5 hrs and remaining in NSR until 2.5 hrs after the start of infusion (percentage of patients),[2]; [3],(44%)
same,Conversion to NSR at any time within 2.5 hrs and remaining in NSR until 24 hrs after the start of infusion (patients out of total),[2]; [3],22 out of 42
same,Conversion to NSR at any time within 2.5 hrs and remaining in NSR until 24 hrs after the start of infusion (percentage of patients),[2]; [3],(52%)
same,Conversion to NSR at any time within 24 hrs after the start of infusion (patients out of total),[2]; [3],26 out of 42
same,Conversion to NSR at any time within 24 hrs after the start of infusion (percentage of patients),[2]; [3],(62%)
same,Conversion to NSR at any time within 24 hrs and remaining in NSR until 24 hrs after the start of infusion (patients out of total),[2]; [3],24 out of 42
same,Conversion to NSR at any time within 24 hrs and remaining in NSR until 24 hrs after the start of infusion (percentage of patients),[2]; [3],(57%)
same,Conversion to NSR at any time within 2.5 hrs after the start of infusion (patients converted out of total),[2]; [4],24 out of 42
same,Conversion to NSR at any time within 2.5 hrs and remaining in NSR until 2.5 hrs after the start of infusion (patients out of total),[2]; [4],24 out of 42
same,Conversion to NSR at any time within 2.5 hrs and remaining in NSR until 2.5 hrs after the start of infusion (percentage of patients),[2]; [4],(57%)
same,Conversion to NSR at any time within 2.5 hrs and remaining in NSR until 24 hrs after the start of infusion (patients out of total),[2]; [4],22 out of 37
same,Conversion to NSR at any time within 2.5 hrs and remaining in NSR until 24 hrs after the start of infusion (percentage of patients),[2]; [4],(59%)
same,Conversion to NSR at any time within 24 hrs after the start of infusion (patients out of total),[2]; [4],26 out of 37
same,Conversion to NSR at any time within 24 hrs after the start of infusion (percentage of patients),[2]; [4],(70%)
same,Conversion to NSR at any time within 24 hrs and remaining in NSR until 24 hrs after the start of infusion (patients out of total),[2]; [4],24 out of 37
same,Conversion to NSR at any time within 24 hrs and remaining in NSR until 24 hrs after the start of infusion (percentage of patients),[2]; [4],(65%)
same,Conversion to NSR at any time within 2.5 hrs after start of infusion (%),[2]; [5],35.3%
same,Conversion to NSR at any time within 2.5 hrs after start of infusion (converted/total),[2]; [5],6/17
same,Conversion to NSR at any time within 2.5 hrs after start of infusion (%),[2]; [6],37.5%
same,Conversion to NSR at any time within 2.5 hrs after start of infusion (converted/total),[2]; [6],6/16
same,Conversion to NSR at any time within 2.5 hrs after start of infusion (%),[2]; [7],51.4%
same,Conversion to NSR at any time within 2.5 hrs after start of infusion (converted/total),[2]; [7],18/35
same,Conversion to NSR at any time within 2.5 hrs after start of infusion (%),[2]; [8],69.2%
same,Conversion to NSR at any time within 2.5 hrs after start of infusion (converted/total),[2]; [8],18/26
same,Conversion to NSR at any time within 2.5 hrs after start of infusion (%),[2]; [9],40.0%
same,Conversion to NSR at any time within 2.5 hrs after start of infusion (converted/total),[2]; [9],2/5
same,Conversion to NSR at any time within 2.5 hrs after start of infusion (%),[2]; [10],33.3%
same,Conversion to NSR at any time within 2.5 hrs after start of infusion (converted/total),[2]; [10],1/3
same,Conversion to NSR at any time within 2.5 hrs after start of infusion (%),[2]; [11],33.3%
same,Conversion to NSR at any time within 2.5 hrs after start of infusion (converted/total),[2]; [11],4/12
same,Conversion to NSR at any time within 2.5 hrs after start of infusion (%),[2]; [12],38.5%
same,Conversion to NSR at any time within 2.5 hrs after start of infusion (converted/total),[2]; [12],5/13
same,Conversion to NSR at any time within 2.5 hrs after start of infusion (%),[2]; [13],50.0%
same,Conversion to NSR at any time within 2.5 hrs after start of infusion (converted/total),[2]; [13],10/20
same,Conversion to NSR at any time within 2.5 hrs after start of infusion (%),[2]; [14],72.2%
same,Conversion to NSR at any time within 2.5 hrs after start of infusion (converted/total),[2]; [14],13/18
same,Conversion to NSR at any time within 2.5 hrs after start of infusion (%),[2]; [15],51.4%
same,Conversion to NSR at any time within 2.5 hrs after start of infusion (converted/total),[2]; [15],8/15
same,Conversion to NSR at any time within 2.5 hrs after start of infusion (%),[2]; [16],62.5%
same,Conversion to NSR at any time within 2.5 hrs after start of infusion (converted/total),[2]; [16],5/8
same,Percentage of patients converted to normal sinus rhythm at any time within 2.5 hours after the initiation of the infusion,[2]; 0.4 mg group,52%
same,Percentage of patients converted to normal sinus rhythm at any time within 2.5 hours after the initiation of the infusion,[2]; 0.6 mg group,60%
